# Data: US10988474B2, “Compounds acting at multiple prostaglandin receptors giving a general anti-inflammatory response” (ALLERGAN, INC., priority 2011, dated 2021)
# Key:
# Format in all cases: cell-based
# [1] = target: T1, human prostanoid DP1 receptor (Homo sapiens, UniProt Q13258); experiment: FLIPR Ca2+ signaling PG antagonist assay, DP1 stable cell line; settings: HEK-293 EBNA cells, human recombinant DP1 with chimeric Gqs; standard agonist BW 245C; read-out: DP (Kb, PG antagonist activity)
# T1 construct: expressed in transfected cells
# T1 sequence (Q13258 1-359): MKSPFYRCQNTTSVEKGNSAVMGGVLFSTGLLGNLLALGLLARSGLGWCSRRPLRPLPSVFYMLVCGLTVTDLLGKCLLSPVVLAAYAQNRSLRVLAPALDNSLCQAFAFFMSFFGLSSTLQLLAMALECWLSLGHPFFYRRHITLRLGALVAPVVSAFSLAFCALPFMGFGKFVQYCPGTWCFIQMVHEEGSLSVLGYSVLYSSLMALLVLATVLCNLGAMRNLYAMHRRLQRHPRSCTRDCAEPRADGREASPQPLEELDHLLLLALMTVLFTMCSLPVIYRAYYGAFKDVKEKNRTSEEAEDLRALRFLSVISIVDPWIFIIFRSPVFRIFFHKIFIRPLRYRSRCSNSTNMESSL
# Experimental: (§1) The above compounds were tested for PG antagonist activity as follows using human recombinant prostanoid receptor (DP1, EP1-4, FP, IP and TP) stable cell lines: In order to measure the response of Gs and Gi coupled prostanoid receptors as a Ca^2+ signal, chimeric G protein cDNAs were used. Stable cell lines over-expressing human prostanoid DP1, EP1-4, FP, IP, and TP receptors were established as follows:
# (§2) Briefly, human prostanoid DP1, EP2, and EP4 receptor cDNAs were co-transfected with chimeric Gqs cDNA containing a haemagglutanin (HA) epitope; human prostanoid EP3 receptors were co-transfected with chimeric Gqi-HA; human EP1, FP, IP, and TP receptor cDNAs were expressed with no exogenous G-proteins. Gqs and Gqi chimeric cDNAs (Molecular Devices, Sunnyvale, Calif., U.S.A.), as well as cDNAs of prostanoid receptors, were cloned into a pCEP4 vector with a hygromycin B selection marker. Transfection into HEK-293 EBNA (Epstein-Barr virus nuclear antigen) cells was achieved by the FuGENE 6 transfection Reagent (Roche Applied Science, Indianapolis, Ind., USA). Stable transfectants were selected according to hygromycin resistance. Because Gqs and Gqi contained an HA epitope, G-protein expression was detected by Western blotting analysis using anti-mouse HA monoclonal antibody and horseradish peroxidase (HRP)-conjugated secondary antibody, while functional expression of prostanoid receptors was detected by FLIPR screening (Matias et al., 2004). These stable cell lines were validated using previously published antagonists at 10 μM against serial dilutions of standard agonists by FLIPR functional assays for Ca^2+ Signaling (as described below).
# (§3) Ca^2+ signaling studies were performed using a FLIPR TETRA system (Molecular Devices, Sunnyvale, Calif., USA) in the 384-format. This is a high-throughput instrument for cell-based assays to monitor Ca^2+ signaling associated with GPCRs and ion channels. Cells were seeded at a density of 5×10^4 cells/well in BioCoat poly-D-lysine coated, black wall, clear bottom 384-well plates (BD Biosciences, Franklin lakes, NJ, USA) and allowed to attach overnight in an incubator at 37° C. The cells were then washed twice with HBSS-HEPES buffer (Hanks' balanced salt solution without bicarbonate and phenol red, 20 mM HEPES, pH 7.4) using an ELx405 Select CW Microplate Washer (BioTek, Winooski, Vt., USA). After 60 min of dye-loading in the dark using the Ca^2+-sensitive dye Fluo-4AM (Invitrogen, Carlsbad, Calif., USA), at a final concentration of 2×10^−6M, the plates were washed 4 times with HBSS-HEPES buffer to remove excess dye and leaving 50 μl of buffer in each well. The plates were then placed in the FLIPR TETRA instrument and allowed to equilibrate at 37° C. Compounds were added in a 25 μl volume to each well to give final concentrations of 0.1 μM, 0.3 μM, 1 μM, 3 μM, 10 μM, and 30 μM; or 0.067 μM, 0.1 μM, 0.2 μM, 0.3 μM, 0.67 μM, and 1 μM for cells over-expressing TP receptors. After 4.5 minutes, a 7-point serial dilution of the standard agonist for the corresponding receptor, in a 25 μl volume was injected at the final concentrations from 10^−11M to 10^−5M in 10-fold serial dilution increments for cells expressing human recombinant DP1, EP1, EP2, EP3, EP4, FP, and IP receptors. The dose range for the standard agonist for human recombinant TP receptors was from 10^−12M to 10^−6M. HBSS-HEPES buffer was used as the negative control for the standard agonists. Cells were excited with LED (light emitting diode) excitation at 470-495 nm and emission was measured through an emission filter at 515-575 nm. Assay plates were read for 3.5 minutes using the FLIPR^TETRA. The peak increase in fluorescence intensity was recorded for each well. On each plate, negative controls, dose response of positive controls, and co-treatments of antagonist-agonist for each dose were in triplicates. Standard agonists were as follows: DP=BW 245C, EP1-EP4=PGE2, FP=17-phenyl-PGF2α, IP=Cicaprost, and TP=U-46619. […]
# [2] = target: T2, human prostanoid EP3 receptor (Homo sapiens, UniProt P43115); experiment: FLIPR Ca2+ signaling PG antagonist assay, EP3 stable cell line; settings: HEK-293 EBNA cells, human recombinant EP3 with chimeric Gqi; standard agonist PGE2
# T2 construct: expressed in transfected cells
# T2 sequence (P43115 1-390): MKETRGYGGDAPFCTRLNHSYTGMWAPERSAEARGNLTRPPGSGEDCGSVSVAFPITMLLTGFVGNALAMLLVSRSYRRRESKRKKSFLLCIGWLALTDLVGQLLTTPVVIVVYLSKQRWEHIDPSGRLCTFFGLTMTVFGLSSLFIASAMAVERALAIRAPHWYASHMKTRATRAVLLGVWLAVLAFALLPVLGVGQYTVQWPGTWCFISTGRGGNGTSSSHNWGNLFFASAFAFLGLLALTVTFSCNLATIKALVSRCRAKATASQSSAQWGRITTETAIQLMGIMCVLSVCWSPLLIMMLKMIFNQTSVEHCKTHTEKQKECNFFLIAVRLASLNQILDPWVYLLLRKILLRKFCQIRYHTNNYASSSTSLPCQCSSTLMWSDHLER
# Experimental: as §1, §2, §3
# [3] = target: T3, human prostanoid EP4 receptor (Homo sapiens, UniProt P35408); experiment: FLIPR Ca2+ signaling PG antagonist assay, EP4 stable cell line; settings: HEK-293 EBNA cells, human recombinant EP4 with chimeric Gqs; standard agonist PGE2
# T3 construct: expressed in transfected cells
# T3 sequence (P35408 whole entry): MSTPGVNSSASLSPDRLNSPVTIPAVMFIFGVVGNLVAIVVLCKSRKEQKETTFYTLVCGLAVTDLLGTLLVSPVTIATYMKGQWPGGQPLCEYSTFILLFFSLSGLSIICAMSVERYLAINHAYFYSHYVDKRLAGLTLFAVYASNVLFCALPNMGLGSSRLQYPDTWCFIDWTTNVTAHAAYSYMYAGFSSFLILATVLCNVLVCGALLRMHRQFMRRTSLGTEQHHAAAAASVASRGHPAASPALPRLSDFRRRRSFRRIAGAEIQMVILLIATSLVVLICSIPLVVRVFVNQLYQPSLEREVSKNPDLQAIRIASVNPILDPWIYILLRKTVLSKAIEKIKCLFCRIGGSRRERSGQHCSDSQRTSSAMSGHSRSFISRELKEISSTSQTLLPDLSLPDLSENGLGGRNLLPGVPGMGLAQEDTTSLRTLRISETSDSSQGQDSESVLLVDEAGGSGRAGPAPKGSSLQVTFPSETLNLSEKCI
# Experimental: as §1, §2, §3
# [4] = target: T4, human prostanoid IP receptor (Homo sapiens, UniProt P43119); experiment: FLIPR Ca2+ signaling PG antagonist assay, IP stable cell line; settings: HEK-293 EBNA cells, human recombinant IP, no exogenous G-protein; standard agonist Cicaprost
# T4 construct: expressed in transfected cells
# T4 sequence (P43119 whole entry): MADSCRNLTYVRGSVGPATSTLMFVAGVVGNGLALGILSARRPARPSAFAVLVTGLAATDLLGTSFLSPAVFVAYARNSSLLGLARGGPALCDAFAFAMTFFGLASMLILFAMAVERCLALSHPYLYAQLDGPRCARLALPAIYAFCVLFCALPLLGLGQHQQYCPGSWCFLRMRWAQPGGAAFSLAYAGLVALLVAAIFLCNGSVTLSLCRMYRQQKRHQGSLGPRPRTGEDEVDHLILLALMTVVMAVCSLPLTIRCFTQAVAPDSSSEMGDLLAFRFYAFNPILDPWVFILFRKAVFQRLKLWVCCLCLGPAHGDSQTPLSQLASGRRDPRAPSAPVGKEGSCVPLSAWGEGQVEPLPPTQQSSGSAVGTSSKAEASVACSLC
# Experimental: as §1, §2, §3
Structure (SMILES),Kb [1] [nM],Kb [2] [nM],Kb [3] [nM],Kb [4] [nM]
"O=C(O)c1cccc2c1cnn2Cc1cc(Cl)ccc1OCC1CC1 [Example 34, 1-(5-Chloro-2-Cyclopropylmethoxy-Benzyl)-1H-Indazole-4-Carboxylic Acid]",5400,≥ 10000,≥ 10000,≥ 10000
"O=C(O)c1ccc2c(cnn2Cc2cc(Br)ccc2OCC2CCCC2)c1 [Example 14, 1-(5-Bromo-2-Cyclopentylmethoxy-Benzyl)-1H-Indazole-5-Carboxylic Acid]",600,1500,15,340
"CC(C)COc1c(F)cc(Cl)cc1Cn1ncc2cc(C(=O)O)ccc21 [Example 47, 1-(5-Chloro-3-Fluoro-2-Isobutoxy-Benzyl)-1H-Indazole-5-Carboxylic Acid]",700,≥ 10000,≥ 10000,4800
"O=C(O)c1ccc2c(cnn2Cc2cc(Cl)ccc2OCC2CC2)c1 [Example 11, 1-(5-Chloro-2-Cyclopropylmethoxy-Benzyl)-1H-Indazole-5-Carboxylic Acid]",900,6500,110,5500
"CC(C)COc1ccc(Cl)cc1Cn1cc2cc(C(=O)O)ccc2n1 [Example 16, 2-(5-Chloro-2-Isobutoxy-Benzyl)-2H-Indazole-5-Carboxylic Acid]",1500,4000,600,6600
"CC(C)COc1ccc(Br)cc1Cn1cc2cc(C(=O)O)ccc2n1 [Example 17, 2-(5-Bromo-2-Isobutoxy-Benzyl)-2H-Indazole-5-Carboxylic Acid]",3500,≥ 10000,600,≥ 10000
"CCC(CC)COc1ccc(Br)cc1Cn1cnc2cc(C(=O)O)ccc21 [Example 78, 1-[5-Bromo-2-(2-Ethyl-Butoxy)-Benzyl]-1H-Benzoimidazole-5-Carboxylic Acid]",3800,≥ 10000,35,3000
"O=C(O)c1ccc2c(cnn2Cc2cc(Cl)ccc2OCC2CCCC2)c1 [Example 10, 1-(5-Chloro-2-Cyclopentylmethoxy-Benzyl)-1H-Indazole-5-Carboxylic Acid]",440,1100,20,400
"O=C(O)c1ccc2c(cnn2Cc2cc(Br)ccc2OCc2ccccc2)c1 [Example 12, 1-(2-Benzyloxy-5-Bromo-Benzyl)-1H-Indazole-5-Carboxylic Acid]",1600,≥ 10000,1150,5000
CC(C)COc1ccc(O)cc1Cn1ncc2cc(C(=O)O)ccc21 [Example 54],9900,≥ 10000,2700,≥ 10000
"CC(C)COc1ccc(Br)cc1Cn1ccc2cc(C(=O)O)ccc21 [Example 67, 1-(5-Bromo-2-Isobutoxy-Benzyl)-1H-Indole-5-Carboxylic Acid]",≥ 10000,≥ 10000,340,≥ 10000
"CC(C)COc1ccc(Cl)cc1Cn1ncc2c(C(=O)O)cccc21 [Example 36, 1-(5-Chloro-2-Isobutoxy-Benzyl)-1H-Indazole-4-Carboxylic Acid]",1100,4000,1200,200
"O=C(O)c1ccc2cn(Cc3cc(Br)ccc3OCC3CCCC3)nc2c1 [Example 45, 2-(5-Bromo-2-Cyclopentylmethoxy-Benzyl)-2H-Indazole-6-Carboxylic Acid]",2800,≥ 10000,2000,7000
"O=C(O)c1ccc2c(cnn2Cc2cc(Cl)ccc2OCc2ccc(Cl)cc2)c1 [Example 9, 1-[5-Chloro-2-(4-Chloro-Benzyloxy)-Benzyl]-1H-Indazole-5-Carboxylic Acid]",1200,4900,3000,1350
"CC(C)COc1ccc(OC(F)(F)F)cc1Cn1ncc2cc(C(=O)O)ccc21 [Example 20, 1-(2-Isobutoxy-5-Trifluoromethoxy-Benzyl)-1H-Indazole-5-Carboxylic Acid]",500,≥ 10000,30,2700
"O=C(O)c1cccc2nn(Cc3cc(Cl)ccc3OCc3ccc(Cl)cc3)cc12 [Example 41, 2-[5-Chloro-2-(4-Chloro-Benzyloxy)-Benzyl]-2H-Indazole-4-Carboxylic Acid]",4700,≥ 10000,≥ 10000,9800
"CCC(CC)COc1ccc(Br)cc1Cn1ccc2ccc(C(=O)O)cc21 [Example 70, 1-[5-Bromo-2-(2-Ethyl-Butoxy)-Benzyl]-1H-Indole-6-Carboxylic Acid]",2200,≥ 10000,6000,≥ 10000
"CC(C)COc1ccc(OC(F)(F)F)cc1Cn1ccc2cc(C(=O)O)ccc21 [Example 71, 1-(2-Isobutoxy-5-Trifluoromethoxy-Benzyl)-1H-Indole-5-Carboxylic Acid]",≥ 10000,≥ 10000,280,≥ 10000
"CC(C)COc1ccc(Cl)cc1Cn1ncc2cc(C(=O)O)cnc21 [Example 57, 1-(5-Chloro-2-Isobutoxy-Benzyl)-1H-Pyrazolo[3,4-B]Pyridine-5-Carboxylic Acid]",5500,≥ 10000,1300,≥ 10000
"Cc1nn(Cc2cc(C(F)(F)F)ccc2OCC(C)C)c2ccc(C(=O)O)cc12 [Example 25, 1-(2-Isobutoxy-5-Trifluoromethyl-Benzyl)-3-Methyl-1H-Indazole-5-Carboxylic Acid]",220,4500,160,1030
